Key:
HCT116 p53 KO cells [1] = system: HCT116 p53 KO cells
Source text: (§4) p53 or UDG knockdown was achieved via shRNA transduction. Lentiviral vectors LV-THM-shp53 (which also expresses a GFP reporter) or LV-Bleo-shp53 to perform p53 KD in WT HCT116 cells were obtained from Case Western Reserve University, Cleveland, Ohio Lentiviral vector targeting GFP (sh-GFP) was used as control. UDG shRNA vectors (shUDG: NM_003362.2-656s21c1, shUDG-2: NM_003362.2-758s21c1, and shUDG-3: NM_003362.2-893s21c1) were purchased from Sigma, and a scramble targeting shRNA vector (Sigma) was used as paired control. The lentiviral production and infection were performed as previously described. Cells stably infected with LV-THM-p53 were isolated by cell sorting on the basis of their GFP expression.
(§5) Cancer cells (200-300 cells/well) were seeded in 6-well culture dishes and allowed to adhere overnight. For 5-FdU, cells were treated for 24 h, then gently washed with PBS, and incubated with fresh media for at least 10 days to allow individual colonies to form. […] After 10-18 days, the plates were stained with methylene blue. Colonies containing ≥50 cells were counted. The percentage of survival was determined relative to untreated control averaged over 3 independent experiments.

[2] = system: p53 mutant or deficient lines; experiment: Clonogenic survival assay, panel of p53 mutant or deficient lines; conditions: for resistance compared with p53 WT cells: cell lines with p53 mutation or deficiency vs p53 WT; for effect of UDG depletion on cytotoxicity: shUDG vs shSCR, p53 mutant or deficient cells
Source text: as §4, §5

[3] = system: cleaved PARP or activated caspase 3 in HCT116 p53 KO cells; experiment: Western blot of apoptotic proteins; assay type: cell-based, human
Method: (§1) Western blots were performed as previously described Yan et al., Clinical Cancer Research. 2007; 13(5):1532-9. Twenty microgram of protein was loaded on SDS-polyacrylamide gel. The following antibodies were used to detect proteins on the membrane: α-Tubulin (Calbiochem); GAPDH (Santa Cruz Biotechnology); UDG (FL-313) (Santa Cruz Biotechnology); cleaved PARP (Asp214)(19F4) (Cell Signaling); cleaved caspase 3 (Cell Signaling); p53 (FL-393) (Santa Cruz Biotechnology); and p21 (Santa Cruz Biotechnology). For quantitative RT-PCR, total RNA from cells was extracted by using RNeasy Plus Mini Kit (Qiagen). cDNA synthesis was performed by using SuperScript III First Strand Kit (Life Technologies).

[4] = system: cleaved PARP in HCT116 p53 WT cells; experiment: Western blot of apoptotic proteins; assay type: cell-based, human; conditions: shSCR and shUDG, 25 nM 5-FdU 24 h
Method: as §1

A2780 = experiment: Clonogenic survival assay; assay type: cell-based; conditions: Homo sapiens; A2780 (p53 wt), 24 h treatment, colonies after at least 10 days
Method: as §5

DLD1 cells [5] = experiment: Cell cycle and BrdU/PI labeling analysis; assay type: cell-based, human; conditions: for cell cycle progression (PI staining): 100 nM 5-FdU; for cell cycle profile (BrdU and PI co-staining): 100 nM 5-FdU 24 h
Method: For cell cycle analysis, DLD1 cells were synchronize by serum starvation for 48 h and released in fresh media for 16 h. The cells were then treated with 100 nM 5-FdU for 4, 8, 12, 20, 24, 28, 32, 36, 48, 72, and 96 h. At each time point, cells were harvested and fixed with methanol. Fixed cells were incubated with DNase-free RNaseA (Roche) and stained with 50 μg/mL PI solution (Sigma-Aldrich). For BrdU/PI labeling analysis, cells were treated with 100 nM 5-FdU for 24 h and pulsed with 10 μM BrdU (BD Biosciences Pharmingen, BrdU Flow Kit) for 45 minutes before collecting cells. According to manufacturer's instructions from BD Biosciences Pharmingen, cells were fixed, treated with DNAse for 1 h at 37° C., stained with FITC anti-BrdU for 20 minutes, and incubated with PI staining solution (50 μg/mL PI, 10 mM Tris-HCl pH 7.5, 5 mM MgCl2, 10 μg/mL DNase-free RNaseA) for 30 minutes at 37° C. For both assays, cells were analyzed on a BD LSRII instrument.

HCT116 p53 WT cells [6] = conditions: HCT116 p53 WT, shUDG vs shSCR
Source text: as §4, §5

HCT116 p53 WT cells [7] = experiment: Flow cytometric assay of apoptosis (Annexin V/PI); assay type: cell-based, human; conditions: 25 nM 5-FdU 24 h, at 48 h, both UDG expressing and UDG depleted cells
Method: (§2) Cells were seeded in 6-well tissue culture plates (1.5×10^5 cells/well) and allowed to attach overnight. Cells were then treated with 25 nM 5-FdU for 24 h, washed twice with PBS, replenished with drug-free medium at 48, 72, and 96 h. After recovery, the cells floating in the medium were collected. The adherent cells were trypsinized, pelleted, washed in ice-cold PBS, and resuspended in 1× Binding Buffer according to the manufacturer's instructions (FITC Annexin V Apoptosis Detection Kit, BD Pharmingen). Cells were then stained with FITC Annexin V and PI for 15 minutes at room temperature in the dark. Annexin V-FITC detects translocation of […] from the inner to the out cell membrane during early apoptosis, and PI can enter the cells in late apoptosis or necrosis. Untreated cells were used as control for the double staining. The cells were analyzed immediately after staining using a Attune NXT instrument and FlowJo software. For each measurement, at least 20,000 cells were counted.

HCT116 p53 KO cells [8] = experiment: Flow cytometric assay of apoptosis (Annexin V/PI); assay type: cell-based, human; conditions: 25 nM 5-FdU 24 h
Method: as §2

[9] = system: cleaved PARP in HEC1A cells; experiment: Western blot of cleaved PARP; assay type: cell-based, human; conditions: HEC1A, 50 nM 5-FdU
Method: (§3) Western blots were performed as described in Yan et al. (Clin Cancer Res. (2007) 13:1532-39). Antibodies used were as follows: Anti-UDG (FL-313) (Santa Cruz Biotechnology), anti-Cleaved PARP (Asp214)(19F4) (Cell Signaling), and anti-α-Tubulin (Calbiochem).

[10] = system: cleaved PARP in DLD1 cells; experiment: Western blot of cleaved PARP; assay type: cell-based, human; conditions: DLD1, 50 nM 5-FdU
Method: as §3

A375 = experiment: Clonogenic survival assay; assay type: cell-based; conditions: Homo sapiens, A-375; A375 (p53 wt), 24 h treatment, colonies after at least 10 days
Method: as §5

DLD1 cells [11] = experiment: AP site detection assay (genomic uracil and 5-FU); assay type: cell-based, human; conditions: for levels of AP sites: 0-200 nM 5-FdU 48 h
Method: The amount of cellular AP sites was assessed as we previously described by using a NIR cyanine-based AP site probe. […] After the reaction, AP site probe with a final concentration of 25 μM was added and incubated at 37° C. for 1 h. Following incubation, extracted DNA was precipitated, and the supernatant was discarded. DNA pellets were resuspended in H2O, and DNA concentrations were measured and adjusted. The fluorescence intensities of each sample were analyzed with 760 nm excitation and emission scan of 790-847 nm.

[12] = system: HEC1A endometrial cancer cells; experiment: Colony survival assay, shSCR and shUDG cells; assay type: cell-based, human
Method: UDG knockdown was performed via shRNA transduction with validated clone from Sigma-Aldrich. The ID of UDG shRNA clone is NM_003362.2-656s21c1. A non-targeted scramble control shRNA clone (Sigma-Aldrich) was also used. Transfection of shRNA clones was performed according to manufacturer's specifications from Lipofectamine 2000 (Invitrogen). Lentiviral particles were produced via HEK293 cells, and targeted cells were infected and selected with puromycin. The stable UDG knockdown levels were verified for q-PCR and western blot analysis.
DLD1 (200 cells/well) or HEC1A (300 cells/well) cells were plated in 6-well culture dishes and allowed to adhere for 16 h. Cells were treated with drug for 24 h, gently washed twice with 1×PBS, and incubated with fresh media for at least 10 days to allow individual colonies to form. Colonies were stained with methylene blue, and only colonies containing ≥50 cells were counted. The percentage of survival was determined relative to untreated control averaged over 3 independent experiments.

O=c1[nH]c(=O)n([C@H]2C[C@H](O)[C@@H](CO)O2)cc1F [5-FdU, 5-fluorodeoxyuridine]
resistance compared with p53 WT cells (HCT116 p53 KO cells [1]; HCT116 p53 KO vs p53 WT): more resistant | effect of UDG depletion on cytotoxicity (HCT116 p53 KO cells [1]; HCT116 p53 KO, shUDG vs shSCR): greatly enhanced cytotoxicity | resistance compared with p53 WT cells [2]: significantly more resistant | resistance compared with p53 WT cells ([2]; listed as 5FdU): relatively more resistant | IC50 ([2]; read-out: IC50 values, p53 mutant or deficient lines): > 100 nM | effect of UDG depletion on cytotoxicity [2]: selectively sensitized | effect of UDG depletion on cytotoxicity ([2]; listed as 5FdU): overcame this resistance | induction of cleaved PARP or activated caspase 3 ([3]; p53 KO cells depleted of UDG, 48 h to 96 h): robustly induced | induction of cleaved PARP or activated caspase 3 ([3]; p53 KO cells expressing UDG, 25 nM 5-FdU 24 h): not detected | expression of cleaved PARP [4]: induced at 48 h | IC50 (A2780): 1.32 ± 0.33 nM | cell cycle progression (PI staining) (DLD1 cells [5]; synchronized DLD1 UDG depleted, late G1 and early S phase, lasted 48 h): strong cell cycle arrest | cell cycle progression (PI staining) (DLD1 cells [5]; synchronized DLD1 shSCR, through S phase by 36 h): slowed the progression | cell cycle profile (BrdU and PI co-staining) (DLD1 cells [5]; unsynchronized DLD1 shSCR): S phase arrest especially at middle and late S phase | cell cycle profile (BrdU and PI co-staining) (DLD1 cells [5]; unsynchronized DLD1 shUDG): arrested at late G1 and early S phase | effect of UDG depletion on cytotoxicity (HCT116 p53 WT cells [6]): did not significantly affect | cell death (Annexin V and PI positive) (HCT116 p53 WT cells [7]): significant cell death | cell death (Annexin V and PI positive) (HCT116 p53 KO cells [8]; UDG depleted cells, 48 to 96 h): significantly elevated | cell death (Annexin V and PI positive) (HCT116 p53 KO cells [8]; UDG expressing cells): significantly lower | time of 5-FdU treatment until appearance of cleaved PARP [9]: > 96 h | time of 5-FdU treatment until appearance of cleaved PARP [10]: > 24 h | IC50 (A375): 111 ± 1.8 nM | level of uracil and 5-FU in UDG depleted cells relative to shSCR-transfected cells (DLD1 cells [11]; 100 nM 5-FdU 24 h): about three times higher | levels of AP sites (DLD1 cells [11]; shSCR-transfected cells): remained low | levels of AP sites (DLD1 cells [11]; shUDG-transfected cells, dose dependent): dramatic increase | cell survival in shSCR-transfected cells ([12]; HEC1A shSCR, high concentrations): moderate loss of cell viability | effect of UDG depletion on drug sensitivity ([12]; HEC1A shUDG vs shSCR): highly sensitized

— patent US10722530B2, “Methods of diagnosing and treating cancer” (CASE WESTERN RESERVE UNIVERSITY, priority 2016, dated 2020)
